Data published in US20230159496A1, “COMPOUNDS AND METHODS FOR MODULATING SPLICING” (REMIX THERAPEUTICS INC., priority 2020, published 2023).
Where a name gives a salt, the structure may show the parent alone. Read-outs that look alike come from different tables or passages of the source.

What was measured:
Assay type in all cases: cell-based
Target C CJ mRNA = assay: Gene panel canonical junction qPCR assay, Target C; details: decrease in CJ mRNA levels, gene panel; read-out: Target C IC50
Procedure, shortened: (§1)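 A673 or K562 cells were treated for 24 h at 37 °C with an 11-point 3-fold dilution, top dose 10 uM, DMSO ≤0.25%. Canonical junction mRNA in lysates was quantified by one-step RT-qPCR and normalized to GAPDH, GUSB or PPIA.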

HTT mRNA = assay: Splicing assay (RT-qPCR) monitoring HTT canonical junction (CJ) and alternative junction (AJ) mRNA isoforms; details: A673 or K562 cells, 24 h treatment, top dose 10 uM
Procedure, shortened: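 A673 or K562 cells treated 24 h at 37 °C with an 11-point 3-fold dilution (top 10 uM final, DMSO ≤0.25%). Lysates assayed by one-step RT-qPCR for HTT CJ and AJ isoforms, normalized to GAPDH, GUSB (K562) or PPIA (A673).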

HTT CJ mRNA = assay: Gene panel canonical junction qPCR assay, HTT; details: decrease in CJ mRNA levels, gene panel; read-out: HTT IC50
Procedure, shortened: as §1

SMN2 CJ mRNA = assay: Gene panel canonical junction qPCR assay, SMN2; details: decrease in CJ mRNA levels, gene panel; read-out: SMN2 IC50
Procedure, shortened: as §1

[1] = decrease in CJ mRNA (50% response), read-out: HTT CJ AC50
[2] = increase in AJ mRNA (50% response), read-out: HTT AJ AC50

Row | SMILES | IC50 (Target C CJ mRNA) [nM] | AC50 (HTT mRNA; [1]) [nM] | AC50 (HTT mRNA; [2]) [nM] | IC50 (HTT CJ mRNA) [nM] | IC50 (SMN2 CJ mRNA) [nM]
1 | Cc1cn2nc(-c3ccc4nc(NC5CCNCC5)[nH]c(=O)c4c3)cc(C)c2n1 [Compound 192, 6-(2,8-dimethylimidazo[1,2-b]pyridazin-6-yl)-2-(piperidin-4-ylamino)quinazolin-4(3H)-one] | > 10000 | > 10000 | > 10000 | > 10000 | > 10000
2 | Cc1cn2cc(-c3ccc4c(=O)n(C5CCNCC5)cnc4c3)c(C)cc2n1 [Compound 244] | > 10000 | > 10000 | > 10000 | > 10000 | 100 to 1000
3 | Cn1cc2cc(-c3ccc4c(=O)n(C5CCNCC5)cnc4c3)cc(F)c2n1 [Compound 206, 7-(7-fluoro-2-methyl-2H-indazol-5-yl)-3-(piperidin-4-yl)quinazolin-4(3H)-one] | 100 to 1000 | 100 to 1000 | 100 to 1000 | 100 to 1000 | < 100
4 | Cc1cc(-c2ccc3c(=O)n(C4CCNCC4)cnc3c2F)cc2cn(C)nc12 [Compound 234, 7-(2,7-dimethyl-2H-indazol-5-yl)-8-fluoro-3-(piperidin-4-yl)quinazolin-4(3H)-one] | > 10000 | 1000 to 10000 | 1000 to 10000 | 1000 to 10000 | < 100
5 | Cc1cc(-c2ccc3nc(N4CCNCC4)[nH]c(=O)c3c2)cc2cn(C)nc12 [Compound 166, 6-(2,7-dimethyl-2H-indazol-5-yl)-2-(piperazin-1-yl)quinazolin-4(3H)-one] | 1000 to 10000 | 1000 to 10000 | 1000 to 10000 | 1000 to 10000 | 1000 to 10000
6 | Cn1cc2cc(-n3cnc4cc(C5CCNCC5)ccc4c3=O)ccc2n1 [Compound 172, 3-(2-methyl-2H-indazol-5-yl)-7-(piperidin-4-yl)quinazolin-4(3H)-one] | > 10000 | > 10000 | > 10000 | > 10000 | > 10000
7 | Cc1cn2nc(-c3ccc4c(c3)CCN(C3CCN(C)C3)C4=O)cc(C)c2n1 (stereo not shown) [Compound 282, 6-{2,8-dimethylimidazo[1,2-b]pyridazin-6-yl}-2-(1-methylpyrrolidin-3-yl)-3,4-dihydroisoquinolin-1-one] | > 10000 | > 10000 | > 10000 | > 10000 | 1000 to 10000
8 | CCN1CCC(N2CCc3cc(-c4cc(C)c5nc(C)cn5n4)ccc3C2=O)CC1 [Compound 270] | > 10000 | 1000 to 10000 | 1000 to 10000 | 1000 to 10000 | 100 to 1000
9 | Cc1cn2cc(-c3ccc4c(c3)CCN(C3CCNCC3)C4=O)nc2c(C)n1 [Compound 221] | > 10000 | > 10000 | > 10000 | > 10000 | 100 to 1000
10 | Cc1cn2cc(-c3ccc4c(=O)n(C5CCNCC5)ncc4c3)c(C)cc2n1 [Compound 254] | 1000 to 10000 | 1000 to 10000 | 1000 to 10000 | 1000 to 10000 | 1000 to 10000
11 | Cc1cn2nc(-c3ccc4nc(N5CCNC6(CC6)C5)[nH]c(=O)c4c3)cc(C)c2n1 [Compound 190] | 100 to 1000 | 100 to 1000 | 100 to 1000 | 100 to 1000 | 100 to 1000
12 | Cc1nc2c(F)cc(-c3ccc4c(c3)CCN(C3CCNCC3)C4=O)cc2o1 [Compound 215] | 1000 to 10000 | 1000 to 10000 | 1000 to 10000 | 1000 to 10000 | < 100
13 | Cc1cc(-c2ccc3c(=O)n(C4CCNCC4)ncc3c2)cc2cn(C)nc12 [Compound 251] | 100 to 1000 | 100 to 1000 | 100 to 1000 | 100 to 1000 | < 100
14 | O=C1c2ccc(-c3cn[nH]c3)cc2CCN1C1CCNCC1 [Compound 220] | > 10000 | > 10000 | > 10000 | > 10000 | > 10000
15 | Cc1cn2cc(-c3ccc4c(=O)n(C5CCN(C)CC5)cnc4c3)cc(F)c2n1 [Compound 207, 7-(8-fluoro-2-methylimidazo[1,2-a]pyridin-6-yl)-3-(1-methylpiperidin-4-yl)quinazolin-4(3H)-one] | 1000 to 10000 | 1000 to 10000 | 1000 to 10000 | 1000 to 10000 | 100 to 1000
16 | Cc1cn2cc(-c3ccc4c(=O)n(C5CCNCC5)cnc4c3)ncc2n1 [Compound 297] | 1000 to 10000 | 1000 to 10000 | 1000 to 10000 | 1000 to 10000 | < 100
17 | Cc1cn2nc(-c3cc(F)c4c(=O)n(C5CCN(C)CC5)cnc4c3)cc(C)c2n1 [Compound 242, 7-(2,8-dimethylimidazo[1,2-b]pyridazin-6-yl)-5-fluoro-3-(1-methylpiperidin-4-yl)quinazolin-4(3H)-one] | 100 to 1000 | < 100 | < 100 | < 100 | < 100
18 | CN(c1ccc2c(=O)n(-c3ccc4nn(C)cc4c3)cnc2c1)C1CCNCC1 [Compound 180, 7-(methyl(piperidin-4-yl)amino)-3-(2-methyl-2H-indazol-5-yl)quinazolin-4(3H)-one, hydrochloride] | 1000 to 10000 | > 10000 | > 10000 | > 10000 | > 10000
19 | Cc1cn2cc(-c3ccc4c(c3)CCN(C3CCNCC3)C4=O)c(C)cc2n1 [Compound 218] | 1000 to 10000 | 1000 to 10000 | 1000 to 10000 | 1000 to 10000 | 1000 to 10000
20 | Cc1cn2cc(-c3ccc4c(=O)n(C5CCNCC5)ncc4c3)cc(C)c2n1 [Compound 257] | 1000 to 10000 | 100 to 1000 | 100 to 1000 | 100 to 1000 | < 100
21 | Cc1nc2c(F)cc(-c3ccc4c(=O)n(C5CCNCC5)ncc4c3)cc2o1 [Compound 250] | 100 to 1000 | < 100 | < 100 | < 100 | < 100
22 | Cc1nc2c(F)cc(-c3ccc4c(=O)n(C5CCN(C)CC5)cnc4c3)cc2s1 [Compound 301] | 1000 to 10000 | 1000 to 10000 | 1000 to 10000 | 1000 to 10000 | 1000 to 10000
23 | Cc1cn2nc(-c3ccc4c(c3)CCN(C3CCNCC3)C4=O)cc2c(C)n1 [Compound 223] | > 10000 | 1000 to 10000 | 1000 to 10000 | 1000 to 10000 | 100 to 1000
24 | Cc1cn2nc(-c3ccc4c(=O)n(C5CCNCC5)cnc4c3)nc2c(C)n1 [Compound 287, 7-{6,8-dimethyl-[1,2,4]triazolo[1,5-a]pyrazin-2-yl}-3-(piperidin-4-yl)quinazolin-4-one] | 100 to 1000 | 100 to 1000 | 100 to 1000 | 100 to 1000 | < 100
25 | Cc1cn2nc(-c3ccc4c(=O)n(C5CCNC5)ncc4c3)cc(C)c2n1 (stereo not shown) [Compound 264, 6-{2,8-dimethylimidazo[1,2-b]pyridazin-6-yl}-2-(pyrrolidin-3-yl)phthalazin-1-one] | > 10000 | 1000 to 10000 | 1000 to 10000 | 1000 to 10000 | 100 to 1000
26 | Cc1cn2nc(-c3ccc4c(c3)CCN(C3CCNCC3)C4=O)nc2c(C)n1 [Compound 222] | 1000 to 10000 | 1000 to 10000 | 1000 to 10000 | 1000 to 10000 | 100 to 1000
